Experimental data from patent US20250186532A1, “SHINE MUSCAT JELLY HAVING HIGH SENSORY APPEAL AND EXCELLENT ANTIOXIDANT AND ANTITHROMBOTIC ACTIVITIES, AND METHOD OF PREPARING SAME” (Andong National University Industry-Academic Cooperation …, priority 2023, published 2025).

Columns and labels:
thrombin = molecular target: T1, thrombin (Homo sapiens, UniProt P00734); assay: Thrombin time (blood coagulation inhibitory activity); assay type: biochemical
T1 construct: 50 μl of 0.5 U thrombin (Sigma Co., USA); purchased Sigma Co., USA
Protocol: (§1) An antithrombotic activity was measured for the three types of jellies prepared in Example 3, and the results are shown in Table 5. At this time, the blood coagulation inhibitory activity evaluation method was in accordance with the previously reported method (Sohn et al., 2004. Kor. J. Pharmacogn 35. 52-61; Kwon et al., 2004. J. Life Science, 14. 509-513; Ryu et al. 2010. J. Life Science, 20. 922-928). Experiments were conducted to measure thrombin time, prothrombin time, and activated Partial Thromboplastin Time (aPTT). For plasma, commercially available control plasma (MD Pacific Technology Co., Ltd, Huayuan Industrial Area, China) was used. The thrombin time, prothrombin time, and aPTT measurements were performed as follows.
At a temperature of 37° C., 50 μl of 0.5 U thrombin (Sigma Co., USA), 50 μl of 20 mM CaCl2), and 10 μl of sample extracts of various concentrations were mixed in a tube of Amelung coagulometer KC-1A (Japan), and reacted for 2 minutes. Thereafter, 100 μl of plasma was added thereto. Afterward, the time until the plasma coagulated was measured. Aspirin (Sigma Co., USA) was used as a control. […] The thrombin inhibition effect was expressed as an average value of experiments repeated more than three times. A thrombin inhibitory activity was expressed as the coagulation time upon sample addition divided by the coagulation time upon the solvent control addition.

blood coagulation factor = assay: Activated Partial Thromboplastin Time (aPTT); assay type: biochemical
Protocol: as §1
Activated Partial Thromboplastin Time (aPTT)
At a temperature of 37° C., 100 μl of plasma and 10 μl of sample extracts of various concentrations were added to the tube of Amelung coagulometer KC-1A (Japan) and heated for 3 minutes. Thereafter, 50 μl of aPTT reagent (Sigma, ALEXIN™) was added thereto. […] Afterward, the time until the plasma coagulated was measured. […] The results of aPTT were expressed as an average value of three repeated experiments. A blood coagulation factor inhibitory activity was expressed as the aPTT upon sample addition divided by the aPTT upon the solvent control addition.

prothrombin = assay: Prothrombin time (blood coagulation inhibitory activity); assay type: biochemical
Protocol: as §1
At a temperature of 37° C., 70 μl of standard plasma (MD Pacific Co., China) and 10 μl of sample solutions of various concentrations were added into the tube of Amelung coagulometer KC-1A (Japan) and heated for 3 minutes. Thereafter, 130 μl of PT reagent was added thereto. Afterward, the time until the plasma coagulated was expressed as an average value of the experiments repeated three times. Aspirin (Sigma Co., USA) was used as a control. […] A prothrombin inhibitory activity was expressed as the coagulation time upon sample addition divided by the coagulation time upon the solvent control addition.

[1] = Nitrite scavenging ability (Griess reagent); details: 0.2 mg/ml; nitrite solution 1 mM, pH 1.2, 37° C., 1 hour
Protocol: To measure the nitrite scavenging ability, a sample solution was added to the nitrite solution (1 mM), and 0.1 N HCl was further added thereto to adjust the pH of the mixture to 1.2. Thereafter, the mixture was reacted at a temperature of 37° C. for 1 hour, and then Griess reagent (Sigma Co., USA) was added, and the resulting solution was mixed. After leaving the resulting solution at room temperature for 15 minutes, the amount of remaining nitrite was measured by measuring absorbance at a wavelength of 520 nm. The nitrite scavenging ability (%) was calculated using the following equation.

[2] = compared to the untreated group, aspirin at 1.5 mg/ml

Row | Blood coagulation inhibitory activity, Thrombin time (thrombin; coagulation time upon sample addition / upon DMSO addition, control plasma, 37° C., aspirin 1.5 mg/ml, concentration not given for jellies) | extension of thrombin time (thrombin; [2]) [times] | SMILES | Blood coagulation inhibitory activity, aPTT (blood coagulation factor; aPTT upon sample addition / upon DMSO addition, plasma, 37° C., aspirin 1.5 mg/ml, concentration not given for jellies) | extension of aPTT (blood coagulation factor; [2]) [times] | Blood coagulation inhibitory activity, Prothrombin time (prothrombin; coagulation time upon sample addition / upon DMSO addition, standard plasma, 37° C., aspirin 1.5 mg/ml, concentration not given for jellies) | extension of prothrombin time (prothrombin; [2]) [times] | Nitrite scavenging ability [1] [%]
1 | 1.26 ± 0.00 | 1.26 | CC(=O)Oc1ccccc1C(=O)O [Aspirin] | 1.33 ± 0.02 | 1.33 | 1.30 ± 0.02 | 1.30 | 
2 |  |  | O=C1O[C@H]([C@@H](O)CO)C(O)=C1O [Vitamin C] |  |  |  |  | 62.5 ± 0.1
